The values below are quoted from earlier work in patent US11958977B2, “Fluorescently labeled polysaccharide, preparation method therefor, and use thereof” (SUZHOU BAIYUAN GENT CO., LTD., priority 2018, dated 2024).

Where a name gives a salt, the structure may show the parent alone.

For this data set the following is noted: Solvent: 0.1M H2SO4.

With `C=C[C@H]1C[N@@]2CC[C@H]1C[C@H]2[C@H](O)c1ccnc2ccc(OC)cc12` [quinine sulfate], the “Quantum yield of the reference compound” value was 0.56.
